Results: the NIST ThermoML archive (doi:10.1016/j.tca.2007.04.006)

Assay: molar heat capacity at constant pressure
Details: 101.33 kPa, Crystal, Vacuum adiabatic calorimetry

Nc1ccc([N+](=O)[O-])cn1 [2-amino-5-nitropyridine]
Details | molar heat capacity at constant pressure [J/K/mol]
80 K | 52.33
80.24 K | 52.77
84.16 K | 54.56
85 K | 55.34
87.02 K | 56.26
89.97 K | 58.05
90 K | 58.25
93.01 K | 60.06
95 K | 61.07
96.12 K | 61.79
99.15 K | 63.52
100 K | 63.81
102.11 K | 65.16
105 K | 66.48
105.16 K | 66.83
108.3 K | 68.54
110 K | 69.08
111.38 K | 69.97
114.4 K | 71.41
115 K | 71.62
117.37 K | 72.83
120 K | 74.11
120.43 K | 74.39
123.58 K | 76.05
125 K | 76.55
126.69 K | 77.4
129.75 K | 78.85
130 K | 78.95
132.77 K | 80.21
135 K | 81.31
135.75 K | 81.69
138.82 K | 82.97
140 K | 83.65
141.99 K | 84.37
145 K | 85.96
145.12 K | 85.83
148.21 K | 87.22
150 K | 88.25
151.26 K | 88.71
154.29 K | 90.07
155 K | 90.53
157.29 K | 91.42
160 K | 92.79
160.26 K | 92.54
163.32 K | 93.8
165 K | 95.05
166.47 K | 95.36
169.59 K | 96.53
170 K | 97.31
172.69 K | 97.56
175 K | 99.56
175.76 K | 99.17
178.81 K | 100.66
180 K | 101.83
181.83 K | 101.77
184.86 K | 103.74
185 K | 104.09
188 K | 105.44
190 K | 106.38
191.24 K | 107.04
194.48 K | 108.11
195 K | 108.67
197.71 K | 110.07
200 K | 110.98
200.95 K | 111.83
204.28 K | 113.75
205 K | 113.31
207.71 K | 115.82
210 K | 115.66
211.1 K | 117.36
214.45 K | 118.48
215 K | 118.02
217.75 K | 119.73
220 K | 120.42
220.98 K | 121.46
224.24 K | 123.44
225 K | 122.83
227.37 K | 125.24
230 K | 125.27
230.47 K | 126.78
233.53 K | 128
235 K | 127.73
236.7 K | 129.18
239.83 K | 130.77
240 K | 130.22
242.82 K | 132.21
245 K | 132.74
245.9 K | 133.33
249 K | 134.92
250 K | 135.28
252.08 K | 136.09
255 K | 137.85
255.25 K | 137.55
258.39 K | 138.82
260 K | 140.44
261.52 K | 140.61
264.62 K | 142.67
265 K | 143.05
267.71 K | 144.57
270 K | 145.69
270.79 K | 146.14
273.84 K | 147.16
275 K | 148.34
276.89 K | 148.4
279.92 K | 149.95
280 K | 151.02
282.94 K | 151.57
285 K | 153.71
286.05 K | 152.95
289.25 K | 154.4
290 K | 156.42
292.39 K | 157.06
295 K | 159.13
295.48 K | 158.97
298.15 K | 160.85
298.56 K | 161.47
300 K | 161.86
301.64 K | 163.12
304.71 K | 164.66
305 K | 164.59
307.77 K | 165.74
310 K | 167.33
310.83 K | 167.2
313.87 K | 168.75
315 K | 170.06
316.9 K | 170.43
319.93 K | 172.15
320 K | 172.79
323.02 K | 174.56
325 K | 175.51
326.19 K | 175.6
329.34 K | 177.96
330 K | 178.22
332.48 K | 180.37
335 K | 180.91
335.62 K | 182.54
338.77 K | 183.77
340 K | 183.58
341.9 K | 185.05
345 K | 186.22
345.02 K | 186.91
348.14 K | 188.46
350 K | 188.82
351.24 K | 190.04
354.33 K | 191.86
355 K | 191.39
357.42 K | 193.4
360 K | 193.92
360.58 K | 194.97
363.8 K | 195.55
365 K | 196.39
367.02 K | 197.03
370 K | 198.81
370.23 K | 198.93
373.42 K | 200.16
375 K | 201.16
376.61 K | 202.18
379.79 K | 203.08
380 K | 203.44
382.96 K | 204.62
385 K | 205.64
386.12 K | 205.85
389.27 K | 207.34
390 K | 207.76
392.45 K | 208.4
395 K | 209.78
395.48 K | 209.36
